Results reported in patent US9724355B2, “Fulvestrant compositions and methods of use” (SHIMODA BIOTECH (PTY) LTD, priority 2010, dated 2017).
≈ marks a conversion by molar mass, not a printed value. Like-named read-outs stand apart in the source and are kept apart here.

Assay: Fulvestrant aqueous solubility in the presence and absence of cyclodextrins (excess drug, shaken 24 h, filtered, HPLC)
Type: physicochemical
Conditions: for Quantity of Fulvestrant Diluted Run 2 / Average Concentration / Quantity of Fulvestrant Diluted Run 1: diluted sample; for solubility at 24 h: 22 °C
Description: The HPLC system used for the chromatographic determination of fulvestrant consisted of a Waters 600E quaternary gradient pump, a Waters 717plus WISP auto-sampler and a Waters 2487 Dual A, Absorbance detector. Separation was performed using a Phenomenex Luna C18 column (250×4.6 mm; 5 urn) (Phenomenex, Torrance, Calif.) (supplied by Separations, South Africa) and a mobile phase consisting of 50% MeCN:22.5% ddH2O :27.5% MeOH. The mobile phase was degassed and filtered prior to use. […] Sample run times were 15 minutes. The UV detector wavelength was set to 280 nm.
(§1) 1 mL of each of the following aqueous solutions was prepared containing 0; 25; 50; 75 and 100 mg/mL ACD in ddHiO. Excess fulvestrant was added to each of these solutions and the samples were shaken for 24 hours on an orbital shaker at 200 rpm and at 22° C. room temperature. Excess fulvestrant was present in all samples at all times. After 24-hours, the samples were filtered through 0.45 μm syringe tip filters, diluted according to requirements and assayed by HPLC.
as §1, with “5; 7.5; 10” for “25; 50; 75”, “15” for “100”, “BCD” for “ACD”, “ddH2O.” for “ddHiO.”
as §1, with “0;” for “0; 25;”, “100; 150; 200; 250; 300; 350” for “75”, “400” for “100”, “MBCD” for “ACD”, “ddH2O.” for “ddHiO.”
as §1, with “0;” for “0; 25;”, “100; 150; 200; 250; 300; 350” for “75”, “400” for “100”, “HPBCD” for “ACD”, “ddH2O.” for “ddHiO.”
as §1, with “0;” for “0; 25;”, “100; 150; 200; 250; 300; 350” for “75”, “400” for “100”, “SBEBCD” for “ACD”, “ddH2O.” for “ddHiO.”
as §1, with “0;” for “0; 25;”, “100; 150;” for “75”, “200” for “100”, “GCD” for “ACD”, “ddHO.” for “ddHiO.”
as §1, with “0;” for “0; 25;”, “100; 150; 200; 250; 300; 350” for “75”, “400” for “100”, “HPGCD” for “ACD”, “ddH2O.” for “ddHiO.”

Quantity of Fulvestrant Diluted Run 2 (150 mg/mL HPBCD): 93.50 µg/mL
True Fulvestrant Concentration (150 mg/mL HPGCD in ddH2O, 22° C., 24 h): 0.203 mg/mL
Average Concentration (150 mg/mL HPGCD): 220.81 µg/mL
Quantity of Fulvestrant Diluted Run 1 (150 mg/mL HPGCD): 220.67 µg/mL
Quantity of Fulvestrant Diluted Run 2 (150 mg/mL HPGCD): 220.94 µg/mL
True Fulvestrant Concentration (150 mg/mL MBCD in ddH2O, 22° C., 24 h): 6.744 mg/mL
Average Concentration (150 mg/mL MBCD): 67.44 µg/mL
Quantity of Fulvestrant Diluted Run 1 (150 mg/mL MBCD): 67.40 µg/mL
Quantity of Fulvestrant Diluted Run 2 (150 mg/mL MBCD): 67.47 µg/mL
True Fulvestrant Concentration (150 mg/mL SBEBCD in ddH2O, 22° C., 24 h): 0.273 mg/mL
Average Concentration (150 mg/mL SBEBCD): 272.92 µg/mL
Quantity of Fulvestrant Diluted Run 1 (150 mg/mL SBEBCD): 273.01 µg/mL
Quantity of Fulvestrant Diluted Run 2 (150 mg/mL SBEBCD): 272.83 µg/mL
True Fulvestrant Concentration (200 mg/mL GCD in ddH2O, 22° C., 24 h): <0.010 mg/mL
Average Concentration (200 mg/mL GCD): <10.00 µg/mL
Quantity of Fulvestrant Diluted Run 1 (200 mg/mL GCD): <10.000 µg/mL
Quantity of Fulvestrant Diluted Run 2 (200 mg/mL GCD): <10.000 µg/mL
True Fulvestrant Concentration (200 mg/mL HPBCD in ddH2O, 22° C., 24 h): 1.563 mg/mL
Average Concentration (200 mg/mL HPBCD): 99.30 µg/mL
Quantity of Fulvestrant Diluted Run 1 (200 mg/mL HPBCD): 156.30 µg/mL
Quantity of Fulvestrant Diluted Run 2 (200 mg/mL HPBCD): 42.30 µg/mL
True Fulvestrant Concentration (200 mg/mL HPGCD in ddH2O, 22° C., 24 h): 0.300 mg/mL
Average Concentration (200 mg/mL HPGCD): 334.71 µg/mL
Quantity of Fulvestrant Diluted Run 1 (200 mg/mL HPGCD): 334.75 µg/mL
Quantity of Fulvestrant Diluted Run 2 (200 mg/mL HPGCD): 334.66 µg/mL
True Fulvestrant Concentration (200 mg/mL MBCD in ddH2O, 22° C., 24 h): 10.694 mg/mL
Average Concentration (200 mg/mL MBCD): 106.94 µg/mL
Quantity of Fulvestrant Diluted Run 1 (200 mg/mL MBCD): 106.87 µg/mL
Quantity of Fulvestrant Diluted Run 2 (200 mg/mL MBCD): 107.01 µg/mL
True Fulvestrant Concentration (200 mg/mL SBEBCD in ddH2O, 22° C., 24 h): 0.399 mg/mL
Average Concentration (200 mg/mL SBEBCD): 398.81 µg/mL
Quantity of Fulvestrant Diluted Run 1 (200 mg/mL SBEBCD): 398.52 µg/mL
Quantity of Fulvestrant Diluted Run 2 (200 mg/mL SBEBCD): 399.09 µg/mL
True Fulvestrant Concentration (250 mg/mL HPBCD in ddH2O, 22° C., 24 h): 2.377 mg/mL
Average Concentration (250 mg/mL HPBCD): 118.84 µg/mL
Quantity of Fulvestrant Diluted Run 1 (250 mg/mL HPBCD): 118.71 µg/mL
Quantity of Fulvestrant Diluted Run 2 (250 mg/mL HPBCD): 118.97 µg/mL
True Fulvestrant Concentration (250 mg/mL HPGCD in ddH2O, 22° C., 24 h): 0.215 mg/mL
Average Concentration (250 mg/mL HPGCD): 473.84 µg/mL
Quantity of Fulvestrant Diluted Run 1 (250 mg/mL HPGCD): 474.68 µg/mL
Quantity of Fulvestrant Diluted Run 2 (250 mg/mL HPGCD): 472.99 µg/mL
True Fulvestrant Concentration (250 mg/mL MBCD in ddH2O, 22° C., 24 h): 17.429 mg/mL
Average Concentration (250 mg/mL MBCD): 174.29 µg/mL
Quantity of Fulvestrant Diluted Run 1 (250 mg/mL MBCD): 174.30 µg/mL
Quantity of Fulvestrant Diluted Run 2 (250 mg/mL MBCD): 174.28 µg/mL
True Fulvestrant Concentration (250 mg/mL SBEBCD in ddH2O, 22° C., 24 h): 0.609 mg/mL
Average Concentration (250 mg/mL SBEBCD): 304.74 µg/mL
Quantity of Fulvestrant Diluted Run 1 (250 mg/mL SBEBCD): 304.32 µg/mL
Quantity of Fulvestrant Diluted Run 2 (250 mg/mL SBEBCD): 305.15 µg/mL
True Fulvestrant Concentration (300 mg/mL HPBCD in ddH2O, 22° C., 24 h): 3.312 mg/mL
Average Concentration (300 mg/mL HPBCD): 165.62 µg/mL
Quantity of Fulvestrant Diluted Run 1 (300 mg/mL HPBCD): 164.70 µg/mL
Quantity of Fulvestrant Diluted Run 2 (300 mg/mL HPBCD): 166.54 µg/mL
True Fulvestrant Concentration (300 mg/mL HPGCD in ddH2O, 22° C., 24 h): 0.603 mg/mL
Average Concentration (300 mg/mL HPGCD): 392.50 µg/mL
Quantity of Fulvestrant Diluted Run 1 (300 mg/mL HPGCD): 400.24 µg/mL
Quantity of Fulvestrant Diluted Run 2 (300 mg/mL HPGCD): 384.76 µg/mL
True Fulvestrant Concentration (300 mg/mL MBCD in ddH2O, 22° C., 24 h): 22.673 mg/mL
Average Concentration (300 mg/mL MBCD): 226.73 µg/mL
Quantity of Fulvestrant Diluted Run 1 (300 mg/mL MBCD): 226.52 µg/mL
Quantity of Fulvestrant Diluted Run 2 (300 mg/mL MBCD): 226.94 µg/mL
True Fulvestrant Concentration (300 mg/mL SBEBCD in ddH2O, 22° C., 24 h): 0.852 mg/mL
Average Concentration (300 mg/mL SBEBCD): 425.89 µg/mL
Quantity of Fulvestrant Diluted Run 1 (300 mg/mL SBEBCD): 425.82 µg/mL
Quantity of Fulvestrant Diluted Run 2 (300 mg/mL SBEBCD): 425.96 µg/mL
True Fulvestrant Concentration (350 mg/mL HPBCD in ddH2O, 22° C., 24 h): 4.305 mg/mL
Average Concentration (350 mg/mL HPBCD): 215.26 µg/mL
Quantity of Fulvestrant Diluted Run 1 (350 mg/mL HPBCD): 215.41 µg/mL
Quantity of Fulvestrant Diluted Run 2 (350 mg/mL HPBCD): 215.10 µg/mL
True Fulvestrant Concentration (350 mg/mL HPGCD in ddH2O, 22° C., 24 h): 0.802 mg/mL
Average Concentration (350 mg/mL HPGCD): 502.97 µg/mL
Quantity of Fulvestrant Diluted Run 1 (350 mg/mL HPGCD): 500.71 µg/mL
Quantity of Fulvestrant Diluted Run 2 (350 mg/mL HPGCD): 505.22 µg/mL
True Fulvestrant Concentration (350 mg/mL MBCD in ddH2O, 22° C., 24 h): 29.275 mg/mL
Average Concentration (350 mg/mL MBCD): 292.75 µg/mL
Quantity of Fulvestrant Diluted Run 1 (350 mg/mL MBCD): 293.21 µg/mL
Quantity of Fulvestrant Diluted Run 2 (350 mg/mL MBCD): 292.29 µg/mL
True Fulvestrant Concentration (350 mg/mL SBEBCD in ddH2O, 22° C., 24 h): 1.140 mg/mL
Average Concentration (350 mg/mL SBEBCD): 379.96 µg/mL
Quantity of Fulvestrant Diluted Run 1 (350 mg/mL SBEBCD): 382.24 µg/mL
Quantity of Fulvestrant Diluted Run 2 (350 mg/mL SBEBCD): 377.67 µg/mL
True Fulvestrant Concentration (400 mg/mL HPBCD in ddH2O, 22° C., 24 h): 5.473 mg/mL
Average Concentration (400 mg/mL HPBCD): 273.67 µg/mL
Quantity of Fulvestrant Diluted Run 1 (400 mg/mL HPBCD): 275.20 µg/mL
Quantity of Fulvestrant Diluted Run 2 (400 mg/mL HPBCD): 272.14 µg/mL
True Fulvestrant Concentration (400 mg/mL HPGCD in ddH2O, 22° C., 24 h): 1.061 mg/mL
Average Concentration (400 mg/mL HPGCD): 468.43 µg/mL
Quantity of Fulvestrant Diluted Run 1 (400 mg/mL HPGCD): 486.39 µg/mL
Quantity of Fulvestrant Diluted Run 2 (400 mg/mL HPGCD): 450.47 µg/mL
True Fulvestrant Concentration (400 mg/mL MBCD in ddH2O, 22° C., 24 h): 35.892 mg/mL
Average Concentration (400 mg/mL MBCD): 358.92 µg/mL
Quantity of Fulvestrant Diluted Run 1 (400 mg/mL MBCD): 359.13 µg/mL
Quantity of Fulvestrant Diluted Run 2 (400 mg/mL MBCD): 358.71 µg/mL
True Fulvestrant Concentration (400 mg/mL SBEBCD in ddH2O, 22° C., 24 h): 1.507 mg/mL
Average Concentration (400 mg/mL SBEBCD): 502.17 µg/mL
Quantity of Fulvestrant Diluted Run 1 (400 mg/mL SBEBCD): 503.13 µg/mL
Quantity of Fulvestrant Diluted Run 2 (400 mg/mL SBEBCD): 501.21 µg/mL
solubility at 24 h (aqueous cyclodextrin solution, aqueous with cosolvent or surfactant or cyclodextrin, thermodynamic from solid, enhancement with ACD, SBEBCD and HPGCD, read-out: fulvestrant aqueous solubilities): 1000 to 2000 µg/mL
solubility at 24 h (aqueous cyclodextrin solution, aqueous with cosolvent or surfactant or cyclodextrin, thermodynamic from solid, in 400 mg/mL HPBCD, read-out: aqueous solubility of fulvestrant): 5500 µg/mL (≈ 9.06 mM)
solubility at 24 h (aqueous cyclodextrin solution, aqueous with cosolvent or surfactant or cyclodextrin, thermodynamic from solid, in 400 mg/mL MBCD, read-out: fulvestrant aqueous solubility): 35900 µg/mL (≈ 59.2 mM)
solubility thermodynamic at 24 h (water (ddH2O) without cyclodextrin, water, thermodynamic from solid, 0 mg/mL SBEBCD in ddH2O, 22° C., 24 h, read-out: True Fulvestrant Concentration): < 10 µg/mL
solubility at 24 h (water (ddH2O), water, thermodynamic from solid, absence of cyclodextrin, read-out: aqueous solubility of fulvestrant): < 10 µg/mL
SMILES: C[C@]12CC[C@@H]3c4ccc(O)cc4C[C@@H](CCCCCCCCC[S+]([O-])CCCC(F)(F)C(F)(F)F)[C@H]3[C@@H]1CC[C@@H]2O (stereo partly drawn) [Fulvestrant, 7-alpha-[9-(4,4,5,5,5-pentafluoropentylsulphinyl)nonyl]estra-1,3,5-(10)-triene-3,17-beta-diol]
